Source: article PMC3672070, “Novel birch pollen specific immunotherapy formulation based on contiguous overlapping peptides” (Clinical and Translational Allergy, 2013)
Read-outs that look alike come from different tables or passages of the source. Ends that are not written are not given here.

Legend:
[1] = test system: rBet v 1 specific IgE in sera from birch pollen allergic patients; assay: Competition ELISA for rBet v 1 specific human IgE; conditions: read-out: EC50, inhibition of serum IgE binding to rBet v 1; sera from 6 birch pollen allergic patients (1:5 to 1:10) incubated 1 h with tenfold dilutions of competitor starting at 10^-5 M; rBet v 1 coated plates; '>' = no competitive activity up to this concentration
Method: Successively and with washings between steps, plates were incubated 1 h at RT with biotinylated mouse anti-huIgE (Pharmingen, 5 μg/ml, 1 h at RT), Streptavidin-HRP or -alkaline phosphatase (BD, 1:1000 or 1:8000, respectively, 30 min at RT) and TMB (BD OptEIA, ) or 4-NPP. OD were read at 450 nm, 630 nm and 405 nm, respectively. Inhibition of IgE binding to Betv 1 was calculated as: (OD with competitor minus ODmin)/(OD without competitor minus ODmin) × 100, where ODmin was determined in wells without serum.

[2] = test system: volunteers allergic to birch pollen; assay: Skin prick testing of birch pollen sensitive volunteers (AN002 phase I clinical trial); conditions: 20 volunteers; for skin prick test positive reactions: even at a 10 μM concentration
Method: (§1) The AN002 phase I clinical trial was a single center, open and controlled study conducted at the Centre Hospitalier Universitaire Vaudois (CHUV) in Lausanne. Volunteers (18–45 years) with at least one season history of birch pollen rhinoconjunctivitis or asthma were recruited outside of the birch pollen season. […] The primary objective of the study was to determine the reactogenicity of selected COPs by skin prick tests.
(§2) Individual T1 to T5 COPs, AllerT and T4-T5 mix were evaluated in vivo by skin prick tests following EAACI guidelines [31].

[3] = test system: volunteers allergic to birch pollen; conditions: human, in vivo
Method: as §1, §2

RBL-2H3 cells = assay: Degranulation assay (beta-hexosaminidase release) on rat basophil line RBL-2H3 loaded with sera from rBet v 1-sensitized mice; type: cell-based
Method: Degranulation assay was performed as previously described. RBL-2H3 cells were plated in 96-well tissue culture plates (4×10^4 cells/well) overnight. Passive sensitization of RBL-2H3 cells was carried out with sera from rBet v 1-sensitized mice at a final dilution of 1:30 for 2 h. Unbound antibodies were removed by washing the cell layer twice in Hanks’ balanced salt solution (Sigma-Aldrich, St-Louis, MO, USA). […] The reaction was stopped by addition of 100 μl glycine buffer (0.2M glycine, 0.2M NaCl, pH 10.7) and optical densities (OD) measured at 405 nm.

[4] = test system: RBL703/21 cells (RBL transfected with human FcϵRI); assay: Degranulation assay (beta-hexosaminidase release) on humanised basophil cell line RBL703/21; type: cell-based, rat; conditions: RBL703/21 incubated overnight with sera from ten patients (ImmunoCAP classes 4 to 6); 1 h 37°C
Method: The assay was adapted from Ladics et al. and Blanc et al.. RBL cells transfected with human FcϵRI (RBL703/21, kind gift of Dr L. Vogel, Paul-Ehrlich Institute, Germany) were plated at 10^5 cells/well in medium (MEM containing glutamine and penicillin/streptomycin) and incubated overnight with sera from subjects with class 4, 5 and 6 IgE levels to birch pollen extract as determined by ImmunoCAP (Phadia, Uppsala, Sweden). Human serum was diluted 1/2 with 4M glucose and incubated for 45 min at 56°C, centrifuged and diluted 1/5 with MEM medium before addition to RBL703/21 cells. […] Supernatants (30 μl) were incubated in duplicates with 50 μl of substrate solution (1.3 mg/ml p-nitrophenyl-b-D-2-acetamido-2-deoxyglucopyranozide from Sigma in 0.1 M citrate pH 4.5) for 1 hour at 37°C. Reaction was stopped by the addition of 100 μl of 0.2 M glycin (pH 10.7). OD was measured at 405 nm (reference filter at 620 nm). β-hexosaminidase release was calculated using the following formula: (OD sample-ODbuffer) / (ODanti-IgE-ODbuffer) × 100.

[5] = dilution 1:1 of the concentration given (COPs and mixes 10 μM, rBet v 1 1 μM, birch 100’000 SQ), EAACI guidelines
[6] = dilution 1:100 of the concentration given
[7] = dilution 1:1 of the concentration given in the row (10 μM)

Molecule | EC50 [1] [µM] | Positive skin reactions (≥3 mm wheal and flare present), number of volunteers [2, 5] | 0 mm <Skin reaction < 3 mm (sub-threshold), number of volunteers ([2]; dilution 1:10) | Positive skin reactions (≥3 mm wheal and flare present), number of volunteers ([2]; dilution 1:10) | 0 mm <Skin reaction < 3 mm (sub-threshold), number of volunteers [2, 6] | Positive skin reactions (≥3 mm wheal and flare present), number of volunteers [2, 6] | skin prick test positive reactions [2] | 0 mm <Skin reaction < 3 mm (sub-threshold), number of volunteers [2, 7] | Positive skin reactions (≥3 mm wheal and flare present), number of volunteers [3] | optimal rBet v 1 concentration for hexosaminidase release (RBL-2H3 cells; RBL-2H3 loaded with sera from rBet v 1-sensitized mice, serial concentrations) [nM] | hexosaminidase release (RBL-2H3 cells; RBL-2H3 primed with sera from Bet v 1-sensitized mice (1:30), stimulation 1 h 37°C, COPs and AllerT at 5.7 nM (n=10) and 57 nM (n=3), OD 405 nm) | dose at which maximal degranulation response was reached [4] | positive skin prick reactions, share of patients ([2]; allergen concentration lowered by 10 fold (birch 10’000 SQ, rBet v 1 0.1 μM)) [%]
GVFNYETETTSVIPAARLFKAFILDGDNLFPKVAPQAISSVENIEGNGG [T1] | > 10 | 0 | 0 | 0 | 0 | 0 | unable to elicit skin prick test positive reactions | – | – | – | – | – | –
GVFNYETETTSVIPAARLFKAFILDGDNLFPKVAPQAISSVENIEGNGGPGTIKKISFPEGFPFKYVKDRVDEVDHTNFKYNYS [T4] | > 10 | 0 | 0 | 0 | 1 | 0 | – | 0 | – | – | – | – | –
NGGPGTIKKISFPEGFPFKYVKDRVDEVDHTNFKYNYSVIEGGPIGDTLEKISNEIKIVATPDGGSILKIS [T2] | > 10 | 0 | 0 | 0 | 0 | 0 | unable to elicit skin prick test positive reactions | 0 | – | – | – | – | –
VATPDGGSILKISNKYHTKGDHEVKAEQVKASKEMGETLLRAVESYLLAHSDAYN [T3] | > 10 | – | – | – | – | – | – | – | 0 | – | – | – | –
T5: Bet v 1-derived synthetic contiguous overlapping peptide, aa 65-160 (peptide, UniProt P15494 65-160, looked up, fragment) FKYVKDRVDEVDHTNFKYNYSVIEGGPIGDTLEKISNEIKIVATPDGGSILKISNKYHTKGDHEVKAEQVKASKEMGETLLRAVESYLLAHSDAYN | > 10 | 0 | 0 | 0 | 0 | 0 | – | – | – | – | – | – | –
rBet v 1: recombinant major birch pollen allergen Bet v 1 (BIOMAY, Vienna, Austria) (protein, UniProt P15494 2-160, looked up) Major pollen allergen Bet v …: GVFNYETETTSVIPAARLFKAFILDGDNLFPKVAPQAISSVENIEGNGGPGTIKKISFPEGFPFKYVKDRVDEVDHTNFKYNYSVIEGGPIGDTLEKISNEIKIVATPDGGSILKISNKYHTKGDHEVKAEQVKASKEMGETLLRAVESYLLAHSDAYN | – | – | – | 16 | – | 2 | – | – | – | 0.57 | accumulated significantly | 10^-9 M | 80
